Data taken from article PMC6648837 (ACS Omega, 2019).
Where two headings read alike, the source gives them in different places.

Tests used:
[1] = molecular target: CYP3A4 (Homo sapiens, UniProt P08684); assay: CYP3A4 inhibition assay; format: biochemical; conditions: for CYP3A4 inhibition compared in words: versus dillapiol (14, 15: versus 13); for increased CYP3A4 inhibition relative to the methyl ester 4a (factor): esters of primary alcohol 2; for times more potent than dillapiol as CYP3A4 inhibitor: dillapiol = 1
[2] = test system: Colorado potato beetle; conditions: in vivo bioassays; cited from earlier work

CYP3A4, sequence (P08684 whole entry): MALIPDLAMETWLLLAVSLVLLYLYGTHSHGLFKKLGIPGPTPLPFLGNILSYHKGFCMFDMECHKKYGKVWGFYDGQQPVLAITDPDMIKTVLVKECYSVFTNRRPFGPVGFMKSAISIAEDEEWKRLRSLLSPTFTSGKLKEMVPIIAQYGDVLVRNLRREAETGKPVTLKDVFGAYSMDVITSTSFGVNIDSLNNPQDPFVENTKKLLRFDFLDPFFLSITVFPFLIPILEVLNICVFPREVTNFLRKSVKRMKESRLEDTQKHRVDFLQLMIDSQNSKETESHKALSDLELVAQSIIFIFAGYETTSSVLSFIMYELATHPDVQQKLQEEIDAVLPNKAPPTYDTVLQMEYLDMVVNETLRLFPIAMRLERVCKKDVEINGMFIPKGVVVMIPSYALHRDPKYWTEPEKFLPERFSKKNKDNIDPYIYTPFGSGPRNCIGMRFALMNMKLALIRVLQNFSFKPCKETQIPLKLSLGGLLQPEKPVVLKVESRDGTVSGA

COc1c(CC(C)O)cc2c(c1OC)OCO2 (centres unmarked) [Compound 3]
CYP3A4 inhibition compared in words [1]: less potent than dillapiol

COc1c(CCCOC(C)=O)cc2c(c1OC)OCO2 [Compound 4a]
CYP3A4 inhibition compared in words [1]: essentially the same inhibitory effect as dillapiol | insecticide synergism of pyrethrum [2]: no insecticide synergism

CCCCCC(=O)OCCCc1cc2c(c(OC)c1OC)OCO2 [Compound 4d]
increased CYP3A4 inhibition relative to the methyl ester 4a (factor) [1]: 2.8 | IC50 ([1]; human, recombinant CYP3A4 (BD Gentest), probe dibenzyl fluorescein (DBF)): 3.3 µM

COc1c(CCCOC(=O)c2ccccc2)cc2c(c1OC)OCO2 [Compound 4g]
insecticide synergism of pyrethrum [2]: no insecticide synergism

COc1c(CCCOC(=O)c2ccccc2Cl)cc2c(c1OC)OCO2 [Compound 4h]
IC50 [1]: 1.3 µM

COc1c(CCCOC(=O)c2ccc(Cl)cc2)cc2c(c1OC)OCO2 [Compound 4i]
IC50 [1]: 1.6 µM | increased CYP3A4 inhibition relative to the methyl ester 4a (factor) [1]: greater than 6

COc1c(CCCOC(=O)c2ccc(Cl)cc2Cl)cc2c(c1OC)OCO2 [Compound 4j]
increased CYP3A4 inhibition relative to the methyl ester 4a (factor) [1]: greater than 6

COc1c(CCCOC(=O)C=Cc2ccccc2)cc2c(c1OC)OCO2 [Compound 4l]
IC50 [1]: 2.4 µM

COc1c(CCCOC(=O)C(c2ccccc2)c2ccccc2)cc2c(c1OC)OCO2 [Compound 4n]
increased CYP3A4 inhibition by a factor, benzhydryl versus benzyl group (4m) [1]: 5

COc1c(CC(C)OC(C)=O)cc2c(c1OC)OCO2 (centres unmarked) [Compound 5a]
IC50 [1]: > 20 µM

COc1c(CC(C)OC(=O)c2ccccc2)cc2c(c1OC)OCO2 (centres unmarked) [Compound 5g]
IC50 [1]: 3.5 µM

C=CCc1cc2c(cc1OC)OCO2 [Compound 8b]
insecticide synergism of pyrethrum [2]: increased in vivo synergism relative to dillapiol

C=CCc1cc2c(cc1OCc1ccccc1Cl)OCO2 [Compound 8f]
times more potent than dillapiol as CYP3A4 inhibitor [1]: 86 times

C=CCc1cc2c(cc1OCc1ccccc1OC)OCO2 [Compound 8g]
times more potent than dillapiol as CYP3A4 inhibitor [1]: 0.9 times

COc1cc2c(cc1CCCOC(=O)C=Cc1ccccc1)OCO2 [Compound 11d]
IC50 [1]: 17.2 µM

O=C(C=Cc1ccccc1)OCCCc1cc2c(cc1OCc1ccccc1)OCO2 [Compound 11e]
IC50 [1]: 4.7 µM

O=C(OCCCc1cc2c(cc1OCc1ccccc1)OCO2)C(c1ccccc1)c1ccccc1 [Compound 11g]
IC50 [1]: 1 µM
